From patent US9938267B2, “Heterocyclic inhibitors of glutaminase” (Calithera Biosciences, Inc., priority 2011, dated 2018)
pIC50: −log10 of the molar value.

How the values were obtained:
[1] = biological target: T1, recombinant form of Glutaminase 1 (GAC) (Homo sapiens, UniProt O94925); test: Recombinant enzyme assay (GAC, GDH-coupled absorbance, no preincubation); type: biochemical; conditions: read-out: GAC Delta N2 IC50 no preinc
Procedure: (§1) Enzymatic reaction was started with the addition of 50 μL of enzyme solution (50 mM Tris-HCl pH 8.0, 0.2 mM EDTA, 150 mM K2HPO4, 0.1 mg/ml BSA, 1 mM DTT, 10 ppm antifoam, 4 units/ml GDH, 4 mM adenosine diphosphate, and 4 nM GAC) and read in a Molecular Devices M5 plate reader at 20° C. The plate reader was configured to read absorbance (λ=340 nm) in kinetic mode for 15 minutes. Data was recorded as milli-absorbance units per minute and slopes were compared to a control compound and a DMSO-only control on the same plate. Compounds with slopes less than the DMSO control were considered inhibitors and plate variability was assessed using the control compound.

[2] = biological target: T1, recombinant form of Glutaminase 1 (GAC); test: Recombinant enzyme assay - time dependence (60 minutes enzyme/compound preincubation); type: biochemical; conditions: read-out: GAC Delta N2 IC50 60 min preinc
Procedure: as §1, with “The enzyme/compound mix was sealed with sealing foil (USA Scientific) and allowed to incubate, with mild agitation, for 60 minutes at 20° C. Enzymatic” for “Enzymatic”, “substrate” for “enzyme”, “DTT, 20 mM L-glutamine, 2 mM NAD^+, and” for “DTT,”, “antifoam)” for “antifoam, 4 units/ml GDH, 4 mM adenosine diphosphate, and 4 nM GAC)”

P493-6 (myc "on") cells = test: Cell proliferation assay (72 hrs, Cell Titer Glo or Viacount FACS); type: cell-based; conditions: read-out: Cell prolif P493 72 h IC50; P493 cells, 72 h
Procedure: P493-6 (myc “on”) cells were maintained in growth media (RPMI-1640, 10% FBS, 2 mM glutamine, 100 units/ml Penicillin and 100 μg/ml streptomycin) at 37° C. with 5% CO2. For compound assay, P493-6 cells were plated in 96-well V-bottom plates on the day of compound addition in 50 μl of growth media at a cell density of 200,000 cells/ml (10,000 cells/well). Compounds were serially diluted in 100% DMSO at 200-times the final concentration. Compounds were diluted 100-fold into growth media and then 50 μl of this mixture was added to cell plates making the final concentration of DMSO 0.5%. Cells were incubated with compound for 72 hrs at 37° C. with 5% CO2 and analyzed for antiproliferative effects either by Cell Titer Glo (Promega) or FACS analysis using the Viacount (Millipore) kit on the Guava instrument.

Caco-2 cell monolayers = test: Caco-2 permeability assay (bidirectional); type: in vitro ADME
Text: Caco-2 cells are commonly used in a confluent monolayer on a cell culture insert filter. When cultured in this format and under specific conditions, the cells become differentiated and polarized such that their phenotype, morphologically and functionally resembles the enterocytes lining the small intestine. The cell monolayer provides a physical and biochemical barrier to the passage of small molecules, and is widely used across the pharmaceutical industry as an in vitro model of the human small intestinal mucosa to predict the absorption of orally administered drugs (Hidalgo et al., Gastroenterology, 1989; Artursson, J. Pharm. Sci., 1990). The correlation between the in vitro apparent permeability (P ? app) across Caco-2 monolayers and the in vivo absorption is well established (Artursson et al., Biochem. Biophys. Res. Comm., 1991).
The present assay was used to determine the bidirectional permeability of the compounds of the invention through Caco-2 cell monolayers. Caco-2 cells were grown in confluent monolayers where the media of both the apical (A) and basolateral (B) sides were at pH 7.4. Compounds were dosed at 1 μM in the presence of 200 μM Lucifer Yellow, on the apical side (A→B) or the basolateral side (B→A) for assessment, in duplicate.

[3] = tested on: HCT116 colon carcinoma xenograft; test: HCT116 colon carcinoma xenograft efficacy study; type: in vivo; conditions: female scid/bg mice, intraperitoneal, twice daily; FIG. 1
Procedure: Certain compounds were assayed for in vivo efficacy in xenograft models as follows.
Female scid/bg mice, approximately 6 weeks of age, were implanted subcutaneously on the right flank with 5×10^6 HCT116 cells per mouse in a volume of 100 uL of sterile PBS. When tumors reached a volume of 50-100 mm^3, mice were randomized to groups of n=10 to receive either vehicle or test compound delivered twice daily by intraperitoneal injection. Tumors were measured three times per week using Vernier calipers and tumor volume calculated using the formula: Volume=(Length×Width^2/2), where length and width are the longest perpendicular sides of the tumor. Dosing continued twice daily until control tumors reached a size of 2000 mm^3. Statistical comparisons were made using a 2-way ANOVA with Bonferroni post-test.

Compound NCc1cccc(CC(=O)Nc2nnc(CCCCc3nnc(NC(=O)Cc4cccc(CN)c4)s3)s2)c1 [Compound 325] has a pIC50 [1] of 6.18, a pIC50 [2] of 6.77 and a pIC50 (P493-6 (myc "on") cells) of 7.52.

With O=C(Cc1cccc(OC(F)(F)F)c1)Nc1ccc(CCCCc2nnc(NC(=O)Cc3cccc(F)c3)s2)nn1 [Compound 679] the “Significant Efflux” value (Caco-2 cell monolayers) was “No”.

With O=C(CCN1CCOCC1)OCC(C(=O)Nc1nnc(CCCCc2nnc(NC(=O)C(COC(=O)CCN3CCOCC3)c3ccccc3)s2)s1)c1ccccc1 (centres unmarked) [Compound 188, {[5,5′-(butane-1,4-diyl)-bis(1,3,4-thiadiazole-5,2-diyl)]-bis(azanediyl)}-bis(3-oxo-2-phenylpropane-3,1-diyl)-bis(3-morpholinopropanoate)] the tumor size [3] was “reduced tumor size”.
